Experimental findings from patent publication US11098238B2, “Tracer and method” (JOHNSON MATTHEY PUBLIC LIMITED COMPANY, priority 2016, dated 2021) are described below.

Data set [1] in a line: log Kow (octanol/water partition coefficient). The class given is physicochemical. Particulars: for Log Kow: base-10 logarithm of ratio of equilibrium concentrations in octanol and water. From the text:
Preferably the system is an oil reservoir and the property is the residual oil saturation. Thus, preferably the use is of a partitioning tracer for determining residual oil saturation, the partitioning tracer comprising a sulfone compound having a log Kow value in the range −0.5 to 3. Preferably the log Kow value is in the range 0.5 to 1.5. Those ranges may give optimum partitioning into the oil in the formation. If the log Kow value is too high, the partitioning tracer will spend too long in the oil and will not be released from the well in a reasonable time, or even at all. If the log Kow value is too low, the partitioning tracer will largely remain in the water phase and there will not be a sufficient differential between the release of the conservative and partitioning tracers. The log Kow value is the base-10 logarithm of the ratio of the equilibrium concentrations of the tracer in octanol and water and can be determined for example, by the method described in “Experimental Aspects of Partitioning Tracer Tests for Residual Oil Saturation Determination with FIA-based Laboratory Equipment, SPE Reservoir Engineering, May 1990, pages 239-244”.
The log Kow values are either experimentally determined or estimated using KOWWIN v1.68.

Consider `OC(C(F)(F)F)C(F)(F)F` [1,1,1,3,3,3-Hexafluoro-2-propanol, 1,1,1,3,3,3-hexafluoro-2-propanol], for which the “Log Kow” value in data set [1] is reported as 1.66. Further, in “Vapour pressure”, the “Vapour Pressure” value is reported as 156 mm Hg.
`OCc1ccc(Cl)cc1` [4-Chlorobenzyl alcohol, 4-chlorobenzyl alcohol]: the “Log Kow” value in data set [1] is 1.72. The “Vapour Pressure” value in the data set “Vapour pressure” was 0.00268 mm Hg.
Consider `CS(=O)(=O)c1ccc(Cl)cc1` [4-Chlorophenyl methyl sulfone, 4-chlorophenyl methyl sulfone], for which, in data set [1], the “Log Kow” value is on record as 1.21.
Turning to `CS(C)(=O)=O` [dimethylsulfone], the “log Kow value” in data set [1] is listed as −1.11.
